In patent US20230096766A1, “AMINO ACID HAVING FUNCTIONAL GROUP CAPABLE OF INTERMOLECULAR HYDROGEN BONDING, PEPTIDE COMPOUND CONTAINING SAME AND METHOD FOR PRODUCTION THEREOF” (Chugai Seiyaku Kabushiki Kaisha, priority 2018, published 2023):
*1 amine or outer side, *2 acyl side, *3 side chain or, on linkers, in order; H or OH if unused. Where a SMILES comes first, the peptide text is derived from it. Bridges are numbered along the chain shown (N, C = ends). [ ]: non-standard residue; d: D form. The star is where a group is joined. dhPhe(4-CONHMe,3-OMe) = CNC(=O)c1ccc(CC[C@@H](N)C(=O)O)cc1OC; hPhe(3-OMe,4-CONHMe) = CNC(=O)c1ccc(CC[C@H](N)C(=O)O)cc1OC; Glu(NHSO2Me) = CS(=O)(=O)NC(=O)CC[C@H](N)C(=O)O; NMePhe(3-Cl) = CN[C@@H](Cc1cccc(Cl)c1)C(=O)O; Tyr(3-OMe) = COc1cc(C[C@H](N)C(=O)O)ccc1O; NMehPhe = CN[C@@H](CCc1ccccc1)C(=O)O; X9 = O=C([C@@H](CN[*:1])COCCO)[*:2]; X6 = O=C([C@H](CCCCO)N[*:1])[*:2]; NMeF = CN[C@@H](Cc1ccccc1)C(=O)O; NMeGABA = CN(CCCC(=O)[*:2])[*:1]; NMeI = CC[C@H](C)[C@H](NC)C(=O)O; NMeD = CN[C@@H](CC(=O)O)C(=O)O; CH2CH(OH)CF3 = OC(C*)C(F)(F)F; NMeL = CN[C@@H](CC(C)C)C(=O)O; NMeV = CN[C@H](C(=O)O)C(C)C; NMeAbu = CC[C@H](NC)C(=O)O; NMeA = CN[C@@H](C)C(=O)O; Piperidide = C1CCN(*)CC1; dAbu = CC[C@@H](N)C(=O)O; CH2CMe2OH = CC(C)(O)C*; X8 = C1COC[C@@H](C*)N1; NBuGly = CCCCNCC(=O)O; Isopentyl = CC(C)CC*; NPrGly = CCCNCC(=O)O; Propyl(3-OH) = OCCC*; X3 = C[C@H](O)C*; Sar = CNCC(=O)O; tBu = CC(C)(C)*

Assay: in vitro
Details: human, Caco-2, Caco-2

SMILES | Papp [×10⁻⁶ cm/s]
CCCCN1CC(=O)N(C)[C@@H](CC(C)C)C(=O)N[C@@H](CCC(=O)NS(C)(=O)=O)C(=O)N(C)[C@@H](Cc2cccc(Cl)c2)C(=O)N(C)[C@@H](C(C)C)C(=O)N[C@H](C(=O)N2CCCCC2)CC(=O)N[C@H](CC(C)C)C(=O)N(C)[C@@H](Cc2cccc(Cl)c2)C(=O)N[C@@H](CC(C)C)C(=O)N(C)[C@@H](CC)C(=O)N[C@@H]([C@@H](C)O)C1=O [pd61] ([dL][NMePhe(3-Cl)]L[NMeAbu]T[NBuGly][NMeL][Glu(NHSO2Me)][NMePhe(3-Cl)][NMeV]D-Piperidide; lactam N-11) | < 0.094

Same assay, conditions: human, Caco-2, Caco-2 (cm/sec)

SMILES | Papp [×10⁻⁶ cm/s]
CCCCN1CC(=O)N(C)[C@@H](Cc2cccc(Cl)c2)C(=O)N(C)[C@@H](CC(C)C)C(=O)N[C@@H](COCCCO)C(=O)N(C)[C@@H](CC(C)C)C(=O)N[C@H](C(=O)N2CCCCC2)CC(=O)N(C)CC(=O)N(C)[C@@H](Cc2ccccc2)C(=O)N[C@@H]([C@@H](C)CC)C(=O)N(C)[C@@H](CC(C)C)C(=O)N[C@@H]([C@@H](C)O)C1=O [AP96] ([Sar][NMeF]I[NMeL]T[NBuGly][NMePhe(3-Cl)][NMeL]S(Propyl(3-OH))[NMeL]D-Piperidide; lactam N-11) | 0.17
CCCCN1CC(=O)N(C)[C@@H](CC(C)C)C(=O)N[C@@H](COC(C)(C)C)C(=O)N(C)[C@@H](CC(C)C)C(=O)N(C)[C@@H](CC)C(=O)N[C@H](C(=O)N2CCCCC2)CC(=O)N[C@H](CC(C)C)C(=O)N(C)[C@@H](Cc2ccccc2)C(=O)N[C@H](CCc2ccc(C(=O)NC)c(OC)c2)C(=O)N(C)[C@@H](CC(C)C)C(=O)N[C@@H]([C@@H](C)O)C1=O [AP209] ([dL][NMeF][dhPhe(4-CONHMe,3-OMe)][NMeL]T[NBuGly][NMeL]S(tBu)[NMeL][NMeAbu]D-Piperidide; lactam N-11) | 0.56
CCCN1CC(=O)N(C)[C@@H](CC(C)C)C(=O)N[C@H](C(=O)N2CCCCC2)CC(=O)N(C)[C@@H](C)C(=O)N[C@@H](COCC(C)(C)O)C(=O)N(C)[C@@H](CC(C)C)C(=O)N(C)[C@@H](Cc2ccccc2)C(=O)N[C@@H](CC(C)C)C(=O)N(C)[C@@H](Cc2ccccc2)C(=O)N(C)[C@@H]([C@@H](C)CC)C(=O)N[C@@H]([C@@H](C)O)C1=O [AP05] ([NMeA]S(CH2CMe2OH)[NMeL][NMeF]L[NMeF][NMeI]T[NPrGly][NMeL]D-Piperidide; lactam N-11) | 2.8
CC(C)C[C@@H]1NC(=O)[C@H](Cc2cccc(Cl)c2)N(C)C(=O)[C@H](Cc2ccccc2)N(C)C(=O)[C@H](COCCCO)NC(=O)[C@H](CC(C)C)N(C)C(=O)CCCN(C)C(=O)C[C@@H](C(=O)N2CCCCC2)NC(=O)[C@H](CC(C)C)N(C)C(=O)[C@H](CC(C)C)N(C)C(=O)[C@H]([C@@H](C)O)NC(=O)[C@H](CC(C)C)N(C)C1=O [AP91] ([NMeGABA][NMeL]S(Propyl(3-OH))[NMeF][NMePhe(3-Cl)]L[NMeL]T[NMeL][NMeL]D-Piperidide; lactam N-11) | 0.14
CCCN1CC(=O)N(C)[C@@H](CC(C)C)C(=O)N[C@@H](CCCCO)C(=O)N(C)[C@@H](Cc2cccc(Cl)c2)C(=O)N(C)[C@@H](CC(C)C)C(=O)N[C@H](C(=O)N2CCCCC2)CC(=O)N[C@H](CC)C(=O)N(C)[C@@H](Cc2ccccc2)C(=O)N[C@@H](CC(C)C)C(=O)N(C)[C@@H](CC(C)C)C(=O)N[C@@H]([C@@H](C)O)C1=O [Compound B10] ([dAbu][NMeF]L[NMeL]T[NPrGly][NMeL][X6][NMePhe(3-Cl)][NMeL]D-Piperidide; lactam N-11) | 0.25
CC[C@H](C)[C@@H]1NC(=O)[C@H](CC(C)C)N(C)C(=O)[C@@H](C)NC(=O)C[C@@H](C(=O)N2CCCCC2)NC(=O)[C@H](C(C)C)N(C)C(=O)[C@H](CC(C)C)N(C)C(=O)[C@H](COC(C)(C)C)NC(=O)[C@H](CC(C)C)N(C)C(=O)CN(C)C(=O)[C@H](Cc2c[nH]c3ccccc23)NC(=O)[C@H](CC(C)C)N(C)C1=O [pd108] ([dA][NMeL]I[NMeL]W[Sar][NMeL]S(tBu)[NMeL][NMeV]D-Piperidide; lactam N-11) | 0.87
CCCCN1CC(=O)N(C)[C@@H](Cc2ccccc2)C(=O)N(C)[C@@H](CC(C)C)C(=O)N[C@@H](CCc2ccc(C(=O)NC)c(OC)c2)C(=O)N(C)[C@@H](CC(C)C)C(=O)N[C@H](C(=O)N2CCCCC2)CC(=O)N(C)CC(=O)N(C)[C@@H](CC(C)C)C(=O)N[C@@H]([C@@H](C)CC)C(=O)N(C)[C@@H](CC(C)C)C(=O)N[C@@H]([C@@H](C)O)C1=O [AP207] ([Sar][NMeL]I[NMeL]T[NBuGly][NMeF][NMeL][hPhe(3-OMe,4-CONHMe)][NMeL]D-Piperidide; lactam N-11) | 0.51
CC(C)CCOC[C@@H]1NC(=O)[C@H](Cc2cccc(Cl)c2)N(C)C(=O)[C@H](Cc2ccccc2)N(C)C(=O)[C@H](COC[C@H](C)O)NC(=O)[C@H](CC(C)C)N(C)C(=O)CCCN(C)C(=O)C[C@@H](C(=O)N2CCCCC2)NC(=O)[C@H](CC(C)C)N(C)C(=O)[C@H](CC(C)C)N(C)C(=O)[C@H]([C@@H](C)O)NC(=O)[C@H](CC(C)C)N(C)C1=O [AP63] ([NMeGABA][NMeL]S(X3)[NMeF][NMePhe(3-Cl)]S(Isopentyl)[NMeL]T[NMeL][NMeL]D-Piperidide; lactam N-11) | 0.14
CCCCN1CC(=O)N(C)[C@@H](CC(C)C)C(=O)N[C@@H](COC(C)(C)C)C(=O)N(C)[C@@H](CC(C)C)C(=O)N(C)[C@@H](CC)C(=O)N[C@H](C(=O)N2CCCCC2)CC(=O)N[C@H](CC(C)C)C(=O)N(C)[C@@H](Cc2ccccc2)C(=O)N[C@@H](Cc2ccc(O)c(OC)c2)C(=O)N(C)[C@@H](CC(C)C)C(=O)N[C@@H]([C@@H](C)O)C1=O [Compound E02] ([dL][NMeF][Tyr(3-OMe)][NMeL]T[NBuGly][NMeL]S(tBu)[NMeL][NMeAbu]D-Piperidide; lactam N-11) | 0.31
CCCCN1CC(=O)N(C)[C@@H](Cc2ccccc2)C(=O)N(C)[C@@H](CC(C)C)C(=O)N[C@@H](CC(C)C)C(=O)N(C)[C@@H](CC(C)C)C(=O)N[C@H](C(=O)N2CCCCC2)CC(=O)N(C)CC(=O)N(C)[C@@H](CC)C(=O)N[C@@H](C(C)C)C(=O)N(C)[C@@H](CC)C(=O)N[C@@H](COC[C@@H]2COCCN2)C1=O [AP247] ([Sar][NMeAbu]V[NMeAbu]S(X8)[NBuGly][NMeF][NMeL]L[NMeL]D-Piperidide; lactam N-11) | 0.69
CC(C)C[C@@H]1NC(=O)[C@H](Cc2ccccc2)N(C)C(=O)[C@@H]2CCCN2C(=O)C[C@@H](C(=O)N2CCCCC2)NC(=O)[C@H](Cc2ccccc2)N(C)C(=O)[C@H](Cc2ccccc2)N(C)C(=O)[C@H](COC(C)(C)C)NC(=O)[C@H](CC(C)C)N(C)C(=O)CN(C)C(=O)[C@H]([C@@H](C)O)NC(=O)[C@H](CC(C)C)N(C)C1=O [pd203] (P[NMeF]L[NMeL]T[Sar][NMeL]S(tBu)[NMeF][NMeF]D-Piperidide; lactam N-11) | 2.1
CC[C@H](C)[C@@H]1NC(=O)[C@H](C(C)C)N(C)C(=O)CCCN(C)C(=O)C[C@@H](C(=O)N2CCCCC2)NC(=O)[C@H](CC(C)C)N(C)C(=O)[C@H](C)N(C)C(=O)[C@H](Cc2ccc(O)cc2)NC(=O)[C@H](CC(C)C)N(C)C(=O)[C@H](COC(C)(C)C)NC(=O)[C@H](Cc2ccccc2)N(C)C(=O)[C@H](CC(C)C)N(C)C1=O [pd125] ([NMeGABA][NMeV]I[NMeL][NMeF]S(tBu)[NMeL]Y[NMeA][NMeL]D-Piperidide; lactam N-11) | 0.45
CCCN1CC(=O)N(C)[C@@H](CCc2ccccc2)C(=O)N(C)[C@@H](CC(C)C)C(=O)N[C@@H](COCCC(C)C)C(=O)N(C)[C@@H](CC(C)C)C(=O)N[C@H](C(=O)N2CCCCC2)CC(=O)N(C)CC(=O)N(C)[C@@H](Cc2cccc(Cl)c2)C(=O)N[C@@H](CCCCO)C(=O)N(C)[C@@H](C(C)C)C(=O)N[C@@H]([C@@H](C)O)C1=O [Compound B07] ([Sar][NMePhe(3-Cl)][X6][NMeV]T[NPrGly][NMehPhe][NMeL]S(Isopentyl)[NMeL]D-Piperidide; lactam N-11) | 0.21
CC(C)C[C@@H]1NC(=O)[C@H](Cc2ccccc2)N(C)C(=O)[C@H](COC(C)(C)C)NC(=O)[C@H](Cc2ccccc2)N(C)C(=O)[C@H](C)N(C)C(=O)[C@H](CC(C)C)N(C)C(=O)[C@@H](C)NC(=O)C[C@@H](C(=O)N2CCCCC2)N(C)C(=O)[C@H](Cc2ccccc2)N(C)C(=O)[C@H]([C@@H](C)O)NC(=O)[C@H](C(C)C)N(C)C1=O [pd208] ([dA][NMeL][NMeA][NMeF]S(tBu)[NMeF]L[NMeV]T[NMeF][NMeD]-Piperidide; lactam N-11) | 1.7
CCCCN1CC(=O)N(C)[C@@H](CC(C)C)C(=O)NC[C@@H](COCCO)C(=O)N(C)[C@@H](Cc2ccccc2)C(=O)N(C)[C@@H](CC(C)C)C(=O)N[C@H](C(=O)N2CCCCC2)CC(=O)N[C@H](CC(C)C)C(=O)N(C)[C@@H](CC(C)C)C(=O)N[C@@H](Cc2ccccc2)C(=O)N(C)[C@@H](CC(C)C)C(=O)N[C@@H]([C@@H](C)O)C1=O [AP128] ([dL][NMeL]F[NMeL]T[NBuGly][NMeL][X9][NMeF][NMeL]D-Piperidide; lactam N-11) | 0.78

Same assay, conditions: human, Caco-2, Caco-2 (membrane permeability)

SMILES | Papp [×10⁻⁶ cm/s]
CCCCN1CC(=O)N(C)[C@@H](Cc2ccccc2)C(=O)N(C)[C@@H](CC(C)C)C(=O)N[C@@H](COCC(O)C(F)(F)F)C(=O)N(C)[C@@H](CC(C)C)C(=O)N[C@H](C(=O)N2CCCCC2)CC(=O)N(C)CC(=O)N(C)[C@@H](Cc2ccccc2)C(=O)N[C@@H]([C@@H](C)CC)C(=O)N(C)[C@@H](CC(C)C)C(=O)N[C@@H]([C@@H](C)O)C1=O (stereo partly drawn) [Compound C07] ([Sar][NMeF]I[NMeL]T[NBuGly][NMeF][NMeL]S(CH2CH(OH)CF3)[NMeL]D-Piperidide; lactam N-11) | 0.45
CCCN1CC(=O)N(C)[C@@H](CC(C)C)C(=O)N[C@H](C(=O)N2CCCCC2)CC(=O)N(C)[C@@H](CC(C)C)C(=O)N[C@@H](CCC(=O)NC)C(=O)N(C)[C@@H](CC(C)C)C(=O)N(C)[C@@H](Cc2ccccc2)C(=O)N[C@@H](CC(C)C)C(=O)N(C)[C@@H](Cc2ccccc2)C(=O)N(C)[C@@H]([C@@H](C)CC)C(=O)N[C@@H]([C@@H](C)O)C1=O [Compound J03] ([NMeL]E(NHMe)[NMeL][NMeF]L[NMeF][NMeI]T[NPrGly][NMeL]D-Piperidide; lactam N-11) | 0.21
